One molecule from US7625411B2, “Insecticidally treated fabric having improved wash durability and insecticidal efficacy and method for its production” (Piedmont Chemical Industries I, LLC, priority 2004, dated 2009) can be followed below.

A short description of this data set: Wash durability of permethrin-treated polyester fabric: accelerated laundering (AATCC Test Method 61-1996), solvent extraction, gas chromatography. The data set is classed as physicochemical. Particulars: without the binder system, just after the first wash. The method, then: A polyester warp fleece weighing approximately 7.6 oz. per linear yard was used in this trial. Based on the weight of the fabric, calculating the percent wet pick-up the of fabric using production sqeeze pressures in the pad application, and the amount of permethrin target (1.25 g/m^2), the quantity of permethrin to be added to the pad bath was calculated using the above equation to be 1.68%. […] The fabric was padded and dried at a normal drying temperature for polyester (330 to 350° F.).
After the application of permethrin to the fabric, samples of the treated fabric were extracted with toluene according to the procedure outlined below in order to determine the amount of permethrin loaded onto the fabric. A swatch of fabric measuring approximately two feet by two feet is cut from the treated roll of fabric. From that swatch, 3 smaller pieces measuring 10 cm by 10 cm, were cut and used for extraction of permethrin. Each 10 by 10 swatch was placed in a 250 ml flat-bottomed flask, and from 50-75 ml of an extraction solvent (e.g., 1,1,1-trichloroethane) was added thereto. The flask was then equipped with a reflux condenser and placed on a hot plate and allowed to reflux for 0.5-0.75 hr. Once the samples have finished refluxing and have cooled, 0.05mg/ml of dioctylphthalate (“DOP”) is added to the liquid fraction as an internal standard for gas chromatography (“gc”). […]

Take `CC1(C)C(C=C(Cl)Cl)C1C(=O)OCc1cccc(Oc2ccccc2)c1` (centres unmarked) [permethrin]: the “permethrin remaining in the fabric” value is listed as 0.20-0.30 g/m^2 and the “permethrin washed out of the fabric, of the initial amount loaded” value is reported as 60-80%.
